Measurements: patent US7396837B2, “Antitumoral analogs of lamellarins” (Pharma Mar, S.A.U., priority 2002, dated 2008)
Where two headings read alike, the source gives them in different places.

Tests used:
Type in all cases: cell-based
SK-BR-3 = assay: SRB colorimetric cell growth inhibition assay, SK-BR-3; details: for CC50: cell killing (cytotoxic effect); for GI50: GI=growth inhibition, read-out: GI50 SK-BR-3
Summary of the method: (§1)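 Read-out: sulforhodamine B colorimetry of surviving cell mass after continued exposure of human tumour lines to sample. Values are means ± SD of three wells, expressed as GI, TGI or LC.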

PANC-1 = assay: SRB colorimetric cell growth inhibition assay, PANC-1; details: for IC (TGI) / CC50: Homo sapiens; for IC (TGI): TGI=total growth inhibition (cytostatic effect), read-out: TGI PANC-1; for CC50: LC=cell killing (cytotoxic effect); for GI50: PANC-1, GI=growth inhibition, read-out: GI50 PANC-1
Summary of the method: as §1

K-562 = assay: SRB colorimetric cell growth inhibition assay, K-562; details: for GI50: GI=growth inhibition, read-out: GI50 K-562; for IC (TGI): TGI=total growth inhibition (cytostatic effect), read-out: TGI K-562; for CC50: LC=cell killing (cytotoxic effect)
Summary of the method: as §1

LoVo = assay: SRB colorimetric cell growth inhibition assay, LoVo; details: for CC50: LC=cell killing (cytotoxic effect); for GI50: GI=growth inhibition, read-out: GI50 LOVO; for IC (TGI): TGI=total growth inhibition (cytostatic effect), read-out: TGI LOVO
Summary of the method: as §1

DU-145 = assay: SRB colorimetric cell growth inhibition assay, DU-145; details: for TGI DU-145: total growth inhibition (cytostatic effect); for GI50: GI=growth inhibition, read-out: GI50 DU-145
Summary of the method: as §1

LoVo-Dox = assay: SRB colorimetric cell growth inhibition assay, LoVo-Dox (MDR); details: for GI50: GI=growth inhibition, read-out: GI50 LOVO-DOX; for IC (TGI): TGI=total growth inhibition (cytostatic effect), read-out: TGI LOVO-DOX; for CC50: LC=cell killing (cytotoxic effect)
Summary of the method: as §1

IGROV = assay: SRB colorimetric cell growth inhibition assay, IGROV; details: for GI50: GI=growth inhibition, read-out: GI50 IGROV
Summary of the method: as §1

HT-29 = assay: SRB colorimetric cell growth inhibition assay, HT-29; details: for GI50: HT-29, GI=growth inhibition, read-out: GI50 HT-29; for IC (TGI) / CC50: Homo sapiens; for IC (TGI): TGI=total growth inhibition (cytostatic effect), read-out: TGI HT-29; for CC50: LC=cell killing (cytotoxic effect)
Summary of the method: as §1

A-549 = assay: SRB colorimetric cell growth inhibition assay, A-549; details: for GI50: A-549, GI=growth inhibition, read-out: GI50 A-549; for IC (TGI) / CC50: Homo sapiens; for IC (TGI): TGI=total growth inhibition (cytostatic effect), read-out: TGI A-549; for CC50: LC=cell killing (cytotoxic effect)
Summary of the method: as §1

[1] = SRB colorimetric cell growth inhibition assay, H-MEC-1; details: human
Summary of the method: (§2)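 Growth inhibition (GI), total growth inhibition (TGI, cytostatic) and lethal concentration (LC, cytotoxic) come from an SRB-based colorimetric measure of growth and viability. Data are triplicate-well means ± SD.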

H-MEC-1 = assay: as above; details: Homo sapiens, HMEC-1, H-MEC-1; for GI50: GI=growth inhibition, read-out: GI50 H-MEC-1; for IC (TGI): total growth inhibition (cytostatic effect), read-out: TGI H-MEC-1
Summary of the method: as §2

IGROV-ET = assay: SRB colorimetric cell growth inhibition assay, IGROV-ET (ET-743 resistant); details: for GI50: GI=growth inhibition, read-out: GI50 IGROV-ET; for CC50: cell killing (cytotoxic effect)
Summary of the method: as §1

SKOV-3 = assay: SRB colorimetric cell growth inhibition assay, SKOV-3; details: Homo sapiens; for GI50: SK-OV-3, SKOV-3, GI=growth inhibition, read-out: GI50 SKOV-3; for IC (TGI): total growth inhibition (cytostatic effect), read-out: TGI SKOV-3
Summary of the method: as §2

SK-MEL-28 = assay: SRB colorimetric cell growth inhibition assay, SK-MEL-28; details: for GI50: GI=growth inhibition, read-out: GI50 MEL-28
Summary of the method: as §1

LNCaP = assay: SRB colorimetric cell growth inhibition assay, LNCaP; details: for GI50: GI=growth inhibition, read-out: GI50 LN-caP; for IC (TGI): total growth inhibition (cytostatic effect), read-out: TGI LN-caP; for CC50: cell killing (cytotoxic effect)
Summary of the method: as §1

In the case of `COc1cc(-c2c3c4cc(OC)c(OC(=O)[C@@H](N)C(C)C)cc4oc(=O)c3n3ccc4c(OC(=O)[C@@H](N)C(C)C)c(OC)c(OC)cc4c23)ccc1OC(=O)[C@@H](N)C(C)C` [Compound 35], the IC (TGI) (SK-BR-3; Homo sapiens, SK-BR-3, SK-BR-3, total growth inhibition (cytostatic effect), read-out: TGI SK-BR-3) is reported as 689 nM, the CC50 (SK-BR-3; Homo sapiens, SK-BR-3, read-out: LC50 SK-BR-3, SK-BR-3) is reported as 4030 nM and the GI50 (SK-BR-3; SK-BR-3) is reported as 228 nM. The IC (TGI) (PANC-1; PANC-1, PANC-1) was 1210 nM, the CC50 (PANC-1; PANC-1, read-out: LC50 PANC-1, PANC-1) was 3670 nM and the GI50 (PANC-1) was 178 nM. For the same compound, the GI50 (K-562; Homo sapiens, K562, K-562) was 80.8 nM, the IC (TGI) (K-562; Homo sapiens, K562, K-562) was 975 nM and the CC50 (K-562; Homo sapiens, K562, read-out: LC50 K-562, K-562) was 4820 nM. It also gave a CC50 (LoVo; Homo sapiens, LoVo, read-out: LC50 LOVO, LOVO) of 2600 nM, a GI50 (LoVo; Homo sapiens, LoVo) of 207 nM and an IC (TGI) (LoVo; Homo sapiens, LoVo) of 705 nM. The “TGI DU-145” value (DU-145; DU-145) was 8.81E−08 Molar, the GI50 (DU-145; Homo sapiens, DU-145, DU-145) was 32.1 nM and the CC50 (DU-145; human) was 576 nM. For the same compound, the GI50 (LoVo-Dox; Homo sapiens, LOVO-DOX) was 217 nM, the IC (TGI) (LoVo-Dox; Homo sapiens, LOVO-DOX) was 737 nM and the CC50 (LoVo-Dox; Homo sapiens, read-out: LC50 LOVO-DOX, LOVO-DOX) was 2800 nM. For the same compound, the GI50 (IGROV; Homo sapiens, IGROV) was 152 nM, the IC (TGI) (IGROV; Homo sapiens, IGROV, total growth inhibition (cytostatic effect), read-out: TGI IGROV) was 907 nM and the CC50 (IGROV; human) was 4050 nM. For the same compound, the GI50 (HT-29) was 1180 nM, the IC (TGI) (HT-29; HT-29, HT-29) was 2440 nM and the CC50 (HT-29; HT-29, read-out: LC50 HT-29, HT-29) was 5060 nM. For the same compound, the GI50 (A-549) was 52.4 nM, the IC (TGI) (A-549; A549, A-549) was 259 nM and the CC50 (A-549; A549, read-out: LC50 A-549, A-549) was 6090 nM. It also gave an LC50 (concentration giving 50% net cell killing) [1] of 82.6 nM, a GI50 (H-MEC-1) of 19.7 nM and an IC (TGI) (H-MEC-1) of 40.3 nM. The GI50 (IGROV-ET; Homo sapiens, IGROV-ET) was 192 nM, the IC (TGI) (IGROV-ET; Homo sapiens, IGROV-ET, total growth inhibition (cytostatic effect), read-out: TGI IGROV-ET) was 855 nM and the CC50 (IGROV-ET; Homo sapiens, read-out: LC50 IGROV-ET, IGROV-ET) was 5450 nM. It also gave a GI50 (SKOV-3) of 113 nM, an LC50 (concentration causing 50% net cell killing) (SKOV-3; SK-OV-3, read-out: LC50 SKOV-3) of 3830 nM and an IC (TGI) (SKOV-3; SK-OV-3, SKOV-3) of 932 nM. For the same compound, the IC (TGI) (SK-MEL-28; Homo sapiens, SK-MEL-28, MEL-28, total growth inhibition (cytostatic effect), read-out: TGI MEL-28) was 915 nM, the GI50 (SK-MEL-28; MEL-28) was 54.6 nM and the CC50 (SK-MEL-28; human) was 2770 nM. The GI50 (LNCaP; Homo sapiens, LNCaP, LN-caP) was 88.1 nM, the IC (TGI) (LNCaP; Homo sapiens, LNCaP, LN-caP) was 468 nM and the CC50 (LNCaP; Homo sapiens, LNCaP, read-out: LC50 LN-caP, LN-caP) was 2220 nM.

With `COc1cc(-c2c3c4cc(OC)c(OC(=O)[C@@H](N)Cc5ccccc5)cc4oc(=O)c3n3ccc4c(OC(=O)[C@@H](N)Cc5ccccc5)c(OC)c(OC)cc4c23)ccc1OC(=O)[C@@H](N)Cc1ccccc1` [Compound 31] the CC50 (SK-BR-3; Homo sapiens, SK-BR-3, SK-BR-3, read-out: LC50 SK-BR-3) was 7620 nM, the GI50 (SK-BR-3; SK-BR-3) was 1800 nM and the “TGI SK-BR-3” value (SK-BR-3; SK-BR-3, total growth inhibition (cytostatic effect)) was 7.62E−06 Molar. The CC50 (PANC-1; PANC-1, PANC-1, read-out: LC50 PANC-1) was 7620 nM, the IC (TGI) (PANC-1; PANC-1, PANC-1) was 7620 nM and the GI50 (PANC-1) was 1960 nM. The CC50 (K-562; Homo sapiens, K562, K-562, read-out: LC50 K-562) was 7620 nM, the IC (TGI) (K-562; Homo sapiens, K562, K-562) was 2470 nM and the GI50 (K-562; K-562) was 410 nM. For the same compound, the CC50 (LoVo; Homo sapiens, LoVo, read-out: LC50 LOVO) was 7620 nM, the IC (TGI) (LoVo; Homo sapiens, LoVo) was 5350 nM and the GI50 (LoVo; LOVO) was 1980 nM. The GI50 (DU-145; DU-145) was 301 nM, the CC50 (DU-145; DU-145, cell killing (cytotoxic effect), read-out: LC50 DU-145) was 7620 nM and the “TGI DU-145” value (DU-145; DU-145) was 8.61E−07 Molar. For the same compound, the CC50 (LoVo-Dox; Homo sapiens, LOVO-DOX, read-out: LC50 LOVO-DOX) was 7620 nM, the IC (TGI) (LoVo-Dox; Homo sapiens, LOVO-DOX) was 7620 nM and the GI50 (LoVo-Dox; LOVO-DOX) was 1490 nM. For the same compound, the GI50 (IGROV; IGROV) was 1260 nM, the CC50 (IGROV; IGROV, cell killing (cytotoxic effect), read-out: LC50 IGROV) was 7620 nM and the “TGI IGROV” value (IGROV; IGROV, total growth inhibition (cytostatic effect)) was 7.62E−06 Molar. It also gave a GI50 (HT-29) of 7620 nM, a CC50 (HT-29; HT-29, HT-29, read-out: LC50 HT-29) of 7620 nM and an IC (TGI) (HT-29; HT-29, HT-29) of 7620 nM. For the same compound, the GI50 (A-549) was 433 nM, the CC50 (A-549; A549, A-549, read-out: LC50 A-549) was 4600 nM and the IC (TGI) (A-549; A549, A-549) was 1420 nM. For the same compound, the LC50 (concentration giving 50% net cell killing) ([1]; H-MEC-1 cells, H-MEC-1, cell killing (cytotoxic effect), read-out: LC50 H-MEC-1) was 565 nM, the GI50 (H-MEC-1) was 119 nM and the IC (TGI) (H-MEC-1) was 260 nM. For the same compound, the GI50 (IGROV-ET; IGROV-ET) was 1390 nM, the CC50 (IGROV-ET; IGROV-ET, read-out: LC50 IGROV-ET) was 7620 nM and the “TGI IGROV-ET” value (IGROV-ET; IGROV-ET, total growth inhibition (cytostatic effect)) was 4.00E−06 Molar. For the same compound, the GI50 (SKOV-3) was 524 nM, the LC50 (concentration causing 50% net cell killing) (SKOV-3; SK-OV-3, SKOV-3, cell killing (cytotoxic effect), read-out: LC50 SKOV-3) was 7620 nM and the IC (TGI) (SKOV-3; SK-OV-3, SKOV-3) was 4220 nM. For the same compound, the CC50 (SK-MEL-28; Homo sapiens, SK-MEL-28, MEL-28, cell killing (cytotoxic effect), read-out: LC50 MEL-28) was 7620 nM, the GI50 (SK-MEL-28; MEL-28) was 482 nM and the “TGI MEL-28” value (SK-MEL-28; MEL-28, total growth inhibition (cytostatic effect)) was 7.62E−06 Molar. The CC50 (LNCaP; Homo sapiens, LNCaP, LN-caP, read-out: LC50 LN-caP) was 3430 nM, the IC (TGI) (LNCaP; Homo sapiens, LNCaP, LN-caP) was 1450 nM and the GI50 (LNCaP; LN-caP) was 548 nM.
